Activity calls are given as the source filed them.

The target of experiment [1] is T1, Sentrin-specific protease 8 (Homo sapiens, UniProt Q96LD8).
T1 sequence (Q96LD8 whole entry): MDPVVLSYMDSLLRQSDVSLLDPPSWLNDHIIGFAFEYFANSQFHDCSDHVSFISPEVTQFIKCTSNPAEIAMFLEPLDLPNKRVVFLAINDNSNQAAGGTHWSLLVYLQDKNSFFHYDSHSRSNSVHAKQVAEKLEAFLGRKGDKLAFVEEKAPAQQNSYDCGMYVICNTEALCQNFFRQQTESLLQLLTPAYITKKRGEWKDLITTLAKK
Type of experiment: functional.

Experiment [2] addresses T1, Sentrin-specific protease 8. Type of experiment: functional. This is another data set of the same source.
For a further experiment, the target named is T2, Caspase-3 (Homo sapiens, UniProt P42574).
T2 sequence (P42574 whole entry): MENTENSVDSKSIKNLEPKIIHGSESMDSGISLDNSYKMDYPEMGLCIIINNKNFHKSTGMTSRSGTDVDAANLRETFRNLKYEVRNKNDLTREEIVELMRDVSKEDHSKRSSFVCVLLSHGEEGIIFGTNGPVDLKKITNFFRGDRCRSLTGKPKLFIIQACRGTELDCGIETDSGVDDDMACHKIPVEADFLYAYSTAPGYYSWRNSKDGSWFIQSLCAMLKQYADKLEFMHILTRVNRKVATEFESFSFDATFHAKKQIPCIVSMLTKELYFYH
Put plainly: Dose-response confirmation of uHTS inhibitor hits of Sentrin-Specific Protease 8 in a Caspase-3 Fluorescence assay. It counts as functional.

Experiment [3] has as its target Hepatocyte nuclear factor 4-alpha (Homo sapiens, UniProt P41235). It counts as functional, cell-based.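 Also: biochemical luminescence-based dose-response counterscreen measuring inhibition of HNF4 dimerization, run alongside a screen for blockers of ABHD5–perilipin-5 interaction; split luciferase complementation of HNF4 fusion proteins in cell lysate measuring dimerization.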
Experiment [4] has as its target T3, Heat shock factor protein 1 (Mus musculus, UniProt P38532).
T3 sequence (P38532 whole entry): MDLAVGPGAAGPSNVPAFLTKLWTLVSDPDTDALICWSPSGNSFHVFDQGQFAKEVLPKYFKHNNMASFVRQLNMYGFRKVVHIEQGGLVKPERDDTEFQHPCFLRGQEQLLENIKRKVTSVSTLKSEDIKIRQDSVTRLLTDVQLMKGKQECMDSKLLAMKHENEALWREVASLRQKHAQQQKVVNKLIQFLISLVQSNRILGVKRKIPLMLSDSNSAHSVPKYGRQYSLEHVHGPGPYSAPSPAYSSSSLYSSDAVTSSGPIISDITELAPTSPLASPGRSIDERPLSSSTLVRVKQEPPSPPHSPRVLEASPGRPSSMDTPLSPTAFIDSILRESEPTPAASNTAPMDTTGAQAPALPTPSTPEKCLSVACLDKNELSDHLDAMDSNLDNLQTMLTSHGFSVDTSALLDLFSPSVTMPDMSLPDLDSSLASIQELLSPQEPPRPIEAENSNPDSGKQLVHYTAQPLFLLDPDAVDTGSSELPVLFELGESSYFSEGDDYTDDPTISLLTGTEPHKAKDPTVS
The experiment is described as follows: HSF1 potentiators in luciferase reporter cells, confirmation, cell-based, NIH3T3, luminescence, dose retest (AID 435004).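 Also: stress induced by proteasome inhibitor MG132 added 30 min after compound; luciferase reporter driven by HSF1 response element in NIH3T3 cells; actives raise luminescence as potentiators of the MG132 stress response.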 Type of experiment: functional.

In experiment [5] the target is Long-chain-fatty-acid--AMP ligase FadD28 (Mycobacterium tuberculosis, UniProt P9WQ59). Put plainly: Fluorescence polarization aasay to screen for inhibitors that compete for the binding of FadD28 to a bisubstrate Measured in Biochemical System Using Plate Reader - 2147-01_Inhibitor_Dose_CherryPick_Activity. It counts as functional, Mycobacterium tuberculosis H37Rv.

For a further experiment, the target named is Genome polyprotein (dengue virus type 2, UniProt P29990). The experiment is described as follows: Dengue-2 NS5 methyltransferase inhibitors, primary screen, biochemical, confirmation dose response (AID 588689). Type of experiment: functional.
For experiment [6], the target named is T4, SUMO-activating enzyme (Homo sapiens, UniProt Q9UBT2). The experiment is described as follows: SUMOylation inhibitor hit validation, confirmation, SUMOylation inhibitor project, biochemical, AlphaScreen (AID 2018). It counts as functional.
The target of experiment [7] is T4, SUMO-activating enzyme. Put plainly: inhibitors of in vitro SUMOylation cascade, primary screen, biochemical, HTRF, uHTS (AID 2006). It counts as protein-complex assay.
A short description of experiment [8]: cells. It counts as functional, cell-based.
Experiment [9] concerns the target T5, Trace amine-associated receptor 1 (Homo sapiens, UniProt Q96RJ0).
T5 sequence (Q96RJ0 whole entry): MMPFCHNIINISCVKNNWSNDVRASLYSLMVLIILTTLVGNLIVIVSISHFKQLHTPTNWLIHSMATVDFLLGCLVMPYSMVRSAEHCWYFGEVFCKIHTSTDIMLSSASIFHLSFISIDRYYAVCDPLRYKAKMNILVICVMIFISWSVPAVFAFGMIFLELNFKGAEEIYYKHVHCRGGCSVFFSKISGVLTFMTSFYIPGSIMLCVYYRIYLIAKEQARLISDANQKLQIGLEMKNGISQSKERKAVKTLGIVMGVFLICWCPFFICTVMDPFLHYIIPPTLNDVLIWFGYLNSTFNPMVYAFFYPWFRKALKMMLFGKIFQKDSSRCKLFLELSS
Put plainly: Counterscreen for agonists of the human trace amine associated receptor 1 (hTAAR1): Fluorescence-based cell-based high throughput dose response assay to identify hTAAR1 agonist that also desensitize TAAR1 receptor response. It counts as functional.

The nature of experiment [10]: cells. Type of experiment: functional, cell-based. The source holds these as a separate data set.
Experiment [11] concerns the target T5, Trace amine-associated receptor 1. Put plainly: Fluorescence-based cell-based high throughput dose response assay to identify agonists of the human trace amine associated receptor 1 (TAAR1). It counts as functional.
Experiment [12] deals with Fructose-bisphosphate aldolase (Mycobacterium tuberculosis, UniProt P9WQA3). Put plainly: Fluorescence-based biochemical high throughput dose response assay for inhibitors of the fructose-bisphosphate aldolase (FBA) of M. tuberculosis. It counts as functional.
The target in the next experiment is Steroidogenic factor 1 (Homo sapiens, UniProt Q13285). The experiment is described as follows: Counterscreen for inverse agonists of the liver receptor homolog-1 (LRH-1; NR5A2): Luminescence-based cell-based high throughput dose response assay to identify inverse agonists of the Steroidogenic Factor 1 Nuclear Receptor (SF1; NR5A1). Type of experiment: functional.

Experiment [13] can be described thus: StAR promoter reporter inhibition counter-screen, dose response, counter-screen for LRH-1 inverse agonist project, cell-based, luminescence, luciferase reporter (AID 651969). It counts as functional.
Experiment [14] concerns the target Nuclear receptor subfamily 5 group A member 2 (Homo sapiens, UniProt O00482). It counts as functional, cell-based.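 Also: HEK293T cells transfected with LRH-1 and a StAR promoter luciferase reporter; potency for inhibitors that lower LRH-1 driven reporter light.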

Chain of Nuclear receptor subfamily 5 group A member 2 (O00482 whole entry): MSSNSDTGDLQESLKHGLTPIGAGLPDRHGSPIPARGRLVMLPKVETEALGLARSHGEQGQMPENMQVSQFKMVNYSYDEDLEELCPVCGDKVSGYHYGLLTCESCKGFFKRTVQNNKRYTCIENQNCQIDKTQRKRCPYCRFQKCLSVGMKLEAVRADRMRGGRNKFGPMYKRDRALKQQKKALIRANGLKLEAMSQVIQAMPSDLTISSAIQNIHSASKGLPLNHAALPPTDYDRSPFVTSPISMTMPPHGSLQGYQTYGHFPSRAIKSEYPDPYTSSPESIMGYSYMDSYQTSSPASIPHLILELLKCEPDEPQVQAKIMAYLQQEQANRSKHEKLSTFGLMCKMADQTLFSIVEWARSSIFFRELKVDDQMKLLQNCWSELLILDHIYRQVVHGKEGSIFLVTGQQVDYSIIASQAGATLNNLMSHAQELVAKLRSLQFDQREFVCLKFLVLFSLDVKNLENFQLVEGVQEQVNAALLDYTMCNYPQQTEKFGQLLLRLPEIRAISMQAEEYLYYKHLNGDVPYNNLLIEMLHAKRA
T4 sequence (Q9UBE0 whole entry): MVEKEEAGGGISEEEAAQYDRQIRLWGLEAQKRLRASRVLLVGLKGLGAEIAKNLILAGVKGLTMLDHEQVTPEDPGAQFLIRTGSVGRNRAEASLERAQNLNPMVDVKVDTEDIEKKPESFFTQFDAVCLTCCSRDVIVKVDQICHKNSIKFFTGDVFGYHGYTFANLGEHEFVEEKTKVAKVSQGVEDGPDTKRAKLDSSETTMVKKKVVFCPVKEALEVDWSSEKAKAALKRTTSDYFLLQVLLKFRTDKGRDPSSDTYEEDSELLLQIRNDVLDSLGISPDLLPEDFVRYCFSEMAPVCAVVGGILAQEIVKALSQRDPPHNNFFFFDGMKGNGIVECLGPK
T4 sequence (Q9UBT2 whole entry): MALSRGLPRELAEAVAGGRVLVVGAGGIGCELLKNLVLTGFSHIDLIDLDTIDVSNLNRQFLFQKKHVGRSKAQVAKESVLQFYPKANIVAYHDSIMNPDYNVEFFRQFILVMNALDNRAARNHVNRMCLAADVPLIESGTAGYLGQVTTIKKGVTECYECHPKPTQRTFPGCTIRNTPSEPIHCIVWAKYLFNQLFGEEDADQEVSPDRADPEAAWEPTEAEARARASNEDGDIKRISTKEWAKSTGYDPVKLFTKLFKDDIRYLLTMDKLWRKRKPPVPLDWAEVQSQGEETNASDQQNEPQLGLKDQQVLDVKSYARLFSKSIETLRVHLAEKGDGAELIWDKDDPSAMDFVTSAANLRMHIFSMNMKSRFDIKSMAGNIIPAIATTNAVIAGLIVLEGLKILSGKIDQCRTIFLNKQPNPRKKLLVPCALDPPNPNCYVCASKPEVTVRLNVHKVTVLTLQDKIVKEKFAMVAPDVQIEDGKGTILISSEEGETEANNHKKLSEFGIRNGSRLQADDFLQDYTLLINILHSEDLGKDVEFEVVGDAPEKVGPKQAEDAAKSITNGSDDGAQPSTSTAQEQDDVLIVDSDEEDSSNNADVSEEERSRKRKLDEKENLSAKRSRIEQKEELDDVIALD
Chain of Long-chain-fatty-acid--AMP ligase FadD28 (P9WQ59 whole entry): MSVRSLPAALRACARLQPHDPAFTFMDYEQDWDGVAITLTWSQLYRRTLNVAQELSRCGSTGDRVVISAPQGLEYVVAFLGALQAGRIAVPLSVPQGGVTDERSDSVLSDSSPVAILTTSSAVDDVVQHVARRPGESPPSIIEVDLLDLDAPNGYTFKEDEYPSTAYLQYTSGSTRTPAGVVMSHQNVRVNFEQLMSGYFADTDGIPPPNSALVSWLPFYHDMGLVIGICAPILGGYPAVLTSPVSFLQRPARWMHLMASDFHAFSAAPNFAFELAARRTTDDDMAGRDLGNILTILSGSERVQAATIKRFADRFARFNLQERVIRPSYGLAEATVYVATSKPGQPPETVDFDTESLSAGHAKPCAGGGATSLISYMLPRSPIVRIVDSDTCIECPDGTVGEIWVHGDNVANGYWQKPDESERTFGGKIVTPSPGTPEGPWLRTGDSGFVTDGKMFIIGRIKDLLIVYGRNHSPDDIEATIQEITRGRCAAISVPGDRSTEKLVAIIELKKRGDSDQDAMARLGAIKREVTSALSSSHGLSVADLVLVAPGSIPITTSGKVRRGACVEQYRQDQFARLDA
Chain of Steroidogenic factor 1 (Q13285 whole entry): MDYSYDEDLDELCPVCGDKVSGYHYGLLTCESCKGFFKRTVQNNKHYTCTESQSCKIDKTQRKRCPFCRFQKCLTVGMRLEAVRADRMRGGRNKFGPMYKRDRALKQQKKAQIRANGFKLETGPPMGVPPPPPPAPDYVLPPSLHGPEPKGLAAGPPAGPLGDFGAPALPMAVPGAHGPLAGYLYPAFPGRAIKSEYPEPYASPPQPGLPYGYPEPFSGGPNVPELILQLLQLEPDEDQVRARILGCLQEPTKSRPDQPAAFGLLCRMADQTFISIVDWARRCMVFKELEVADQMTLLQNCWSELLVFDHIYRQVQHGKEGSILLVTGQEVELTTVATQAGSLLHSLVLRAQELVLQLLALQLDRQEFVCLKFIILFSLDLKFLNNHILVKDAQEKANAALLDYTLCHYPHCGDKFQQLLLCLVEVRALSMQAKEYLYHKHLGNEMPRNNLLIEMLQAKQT
Chain of Genome polyprotein (P29990 2492-3391 limits assumed): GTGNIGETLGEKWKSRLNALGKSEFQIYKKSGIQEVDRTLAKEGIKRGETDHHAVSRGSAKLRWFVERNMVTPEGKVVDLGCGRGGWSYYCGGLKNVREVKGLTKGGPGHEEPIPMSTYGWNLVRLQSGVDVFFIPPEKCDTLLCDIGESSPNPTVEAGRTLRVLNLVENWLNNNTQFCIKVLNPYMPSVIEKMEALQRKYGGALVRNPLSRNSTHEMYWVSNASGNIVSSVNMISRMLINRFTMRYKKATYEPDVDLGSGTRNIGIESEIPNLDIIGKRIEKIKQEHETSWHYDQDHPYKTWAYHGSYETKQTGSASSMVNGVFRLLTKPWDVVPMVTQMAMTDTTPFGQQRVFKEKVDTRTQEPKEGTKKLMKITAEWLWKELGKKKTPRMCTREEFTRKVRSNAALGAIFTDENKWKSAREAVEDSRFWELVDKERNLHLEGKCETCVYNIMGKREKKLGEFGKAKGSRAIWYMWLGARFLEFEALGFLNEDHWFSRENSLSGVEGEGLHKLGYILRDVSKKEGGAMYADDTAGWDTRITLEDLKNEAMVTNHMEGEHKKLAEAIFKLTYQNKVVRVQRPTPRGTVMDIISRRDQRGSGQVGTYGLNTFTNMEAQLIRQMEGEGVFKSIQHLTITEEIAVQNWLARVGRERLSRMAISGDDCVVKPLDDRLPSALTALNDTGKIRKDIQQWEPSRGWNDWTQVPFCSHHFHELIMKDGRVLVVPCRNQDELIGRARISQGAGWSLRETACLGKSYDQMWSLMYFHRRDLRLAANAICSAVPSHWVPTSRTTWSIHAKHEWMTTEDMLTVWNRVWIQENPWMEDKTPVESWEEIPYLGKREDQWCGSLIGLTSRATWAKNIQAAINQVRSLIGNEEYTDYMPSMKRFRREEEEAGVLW
Chain of Fructose-bisphosphate aldolase (P9WQA3 whole entry): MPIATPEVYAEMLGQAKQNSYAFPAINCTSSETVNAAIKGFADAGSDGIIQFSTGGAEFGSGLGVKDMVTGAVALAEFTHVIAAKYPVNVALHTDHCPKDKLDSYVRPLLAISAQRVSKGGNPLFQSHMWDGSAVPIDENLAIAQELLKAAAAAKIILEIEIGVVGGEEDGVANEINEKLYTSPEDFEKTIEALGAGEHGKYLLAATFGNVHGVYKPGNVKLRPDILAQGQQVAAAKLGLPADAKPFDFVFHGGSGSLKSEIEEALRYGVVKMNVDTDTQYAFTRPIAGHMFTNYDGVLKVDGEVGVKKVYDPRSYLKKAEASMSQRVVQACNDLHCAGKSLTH
Chain of Hepatocyte nuclear factor 4-alpha (P41235 whole entry, the tested form may be a part): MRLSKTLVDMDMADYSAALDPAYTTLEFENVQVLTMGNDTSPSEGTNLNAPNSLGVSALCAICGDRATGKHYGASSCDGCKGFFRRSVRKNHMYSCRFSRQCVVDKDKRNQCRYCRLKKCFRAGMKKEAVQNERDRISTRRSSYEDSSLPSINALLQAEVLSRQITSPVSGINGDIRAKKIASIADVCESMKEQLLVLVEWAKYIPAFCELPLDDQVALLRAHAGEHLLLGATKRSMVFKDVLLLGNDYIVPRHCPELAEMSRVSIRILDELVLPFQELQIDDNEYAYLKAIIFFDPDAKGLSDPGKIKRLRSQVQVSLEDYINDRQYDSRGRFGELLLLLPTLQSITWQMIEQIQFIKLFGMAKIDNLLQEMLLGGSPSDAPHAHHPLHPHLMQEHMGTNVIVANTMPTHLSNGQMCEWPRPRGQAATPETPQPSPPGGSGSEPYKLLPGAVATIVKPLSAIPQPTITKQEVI

Take `COc1ccc(N2C(=O)[C@@H]3[C@H](C2=O)[C@H]2c4ccccc4C=CN2[C@@H]3C(C)=O)cc1`: the IC50 in [1] was 0.543 µM (active); in [2], 1.19 µM (active); at Caspase-3 it was 3.03 µM (active).
On to `CC(=O)Cc1cc(O)c2ccccc2c1OC(=O)c1ccccc1`, for which the IC50 in [3] was 14.6 µM (inactive). For the same molecule, in [4], the EC50 was > 260 µM (inactive).
Regarding `CCC(C)(C)C1CCc2c(sc(NC(=O)c3ccccc3C(=O)O)c2C#N)C1` (stereo not drawn), the AC50 in experiment [5] was 37.3 µM (active). Moreover, the IC50 at Genome polyprotein was 42.6 µM (active); on SUMO-activating enzyme [6], 15.3 µM (active); on SUMO-activating enzyme [7], 21.4 µM (active).
Turning to `COc1ccc(C(=O)NCCc2c[nH]c3ccccc23)cc1S(=O)(=O)N1CCOCC1`, the AC50 in experiment [5] was 82.7 µM (active).
Turning to `Cc1cc(C(=O)CN2C(=O)C(=O)N(C3CCCC3)C2=O)c(C)n1CCc1ccc(F)cc1`, the EC50 in “cells [8]” is > 29.9 µM (inactive); in experiment [11], 2.96 µM (active). Further, the IC50 in experiment [9] is 5.57 µM (active); in “cells [10]”, > 29.9 µM (inactive).
For the molecule `O=C(Cc1ccccc1)c1nc2ccccc2s1`, the 50% inhibitory concentration (IC50) in experiment [1] was 6.06 µM (active); in experiment [2], 26.7 µM (active); on Caspase-3 it was 25 µM (active).
With `COc1ccc2cc3cc(C(=O)N4CCN(C5CCCCC5)CC4)oc3nc2c1`, in experiment [12], the IC50 is 0.92 µM (active).
Regarding `O=C(CN1C(=O)NC2(CCCC2)C1=O)NCCc1ccc(F)cc1`, the IC50 was 6.2 µM (active) on Steroidogenic factor 1, 35.9 µM (inactive) in experiment [13] and 35.9 µM (inactive) in experiment [14].
With `CC(C)[C@H](NC(=O)C1CC1)C(=O)N1CCC[C@H]1C(=O)NCCc1ccccc1Cl`, the EC50 in “cells [8]” was > 29.9 µM (inactive); in experiment [11], 3.03 µM (active). Further, the IC50 was 3.18 µM (active) in [9] and > 29.9 µM (inactive) in the experiment “cells [10]”.
With `COc1ccc(/C=N/NC(=O)c2ccc(NC(=O)c3cccc([N+](=O)[O-])c3)cc2)c(OC)c1`, the IC50 was 3.07 µM (active) on Steroidogenic factor 1, 35.9 µM (inactive) in experiment [13] and 23.1 µM (inactive) in [14].
